# Data: article PMC4256047, “Structural and Functional Profiling of Environmental Ligands for Estrogen Receptors” (Environmental Health Perspectives, 2014)
# Primed or numbered codes have the meaning given here. Where no end group is shown, it is not given here. fluorescein″ = fluorescein label on the peptide (N-terminal, fluorescein-labeled peptide)
# T1: human ERα (Homo sapiens, UniProt P03372)
# T1 sequence (P03372 1-595): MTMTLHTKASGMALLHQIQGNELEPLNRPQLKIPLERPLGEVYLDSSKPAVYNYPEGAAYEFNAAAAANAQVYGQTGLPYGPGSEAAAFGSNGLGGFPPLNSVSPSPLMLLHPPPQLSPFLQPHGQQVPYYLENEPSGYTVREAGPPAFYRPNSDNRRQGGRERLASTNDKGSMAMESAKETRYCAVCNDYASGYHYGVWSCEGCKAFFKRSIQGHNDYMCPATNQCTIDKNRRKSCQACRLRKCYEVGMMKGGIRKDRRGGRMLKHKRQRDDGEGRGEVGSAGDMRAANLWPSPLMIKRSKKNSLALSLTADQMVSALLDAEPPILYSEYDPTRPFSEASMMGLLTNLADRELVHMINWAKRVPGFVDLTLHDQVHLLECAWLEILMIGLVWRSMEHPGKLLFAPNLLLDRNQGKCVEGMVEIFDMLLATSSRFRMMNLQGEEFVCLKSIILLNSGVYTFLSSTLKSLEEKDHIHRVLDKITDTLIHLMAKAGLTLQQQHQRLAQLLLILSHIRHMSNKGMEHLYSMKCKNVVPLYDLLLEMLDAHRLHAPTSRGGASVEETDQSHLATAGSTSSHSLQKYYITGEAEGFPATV
# T2: wild-type ERα LBD (Homo sapiens, UniProt P03372)
# T2 sequence (P03372 302-552): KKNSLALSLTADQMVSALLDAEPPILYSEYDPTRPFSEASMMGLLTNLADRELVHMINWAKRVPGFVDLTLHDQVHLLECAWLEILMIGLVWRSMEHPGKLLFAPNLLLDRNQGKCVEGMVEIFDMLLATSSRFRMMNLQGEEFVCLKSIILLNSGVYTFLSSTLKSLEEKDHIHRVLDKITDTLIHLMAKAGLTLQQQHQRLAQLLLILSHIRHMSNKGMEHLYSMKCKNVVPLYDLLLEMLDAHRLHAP
# T3: wt-ERα LBD (wild-type estrogen receptor α ligand-binding domain, amino acids 302–552) (human, UniProt P03372 302-552)
# T3 construct: also called wild-type ERα LBD; apo-ERα
# T3 sequence (looked up): T2 sequence (P03372 302-552)
# B1: fluorescein-RHKILHRLLQEGS peptide corresponding to the NR box 2-binding motif of SRC-1 (peptide)
# peptide: {fluorescein″}-RHKILHRLLQEGS
# notes: also called fluorescein-labeled SRC-1 NR2 peptide; SRC-1 NR2 peptide; source: synthetic peptide, bought: EZbiolab
# Key:
# wild-type ERβ LBD = wild-type ERβ LBD (Homo sapiens, UniProt Q92731); assay: fluorescence anisotropy, SRC-1 NR2 peptide recruitment by ERβ LBD; details: class from Kd of SRC-1 peptide for ERβ LBD
# Sequence of wild-type ERβ LBD (Q92731 261-502): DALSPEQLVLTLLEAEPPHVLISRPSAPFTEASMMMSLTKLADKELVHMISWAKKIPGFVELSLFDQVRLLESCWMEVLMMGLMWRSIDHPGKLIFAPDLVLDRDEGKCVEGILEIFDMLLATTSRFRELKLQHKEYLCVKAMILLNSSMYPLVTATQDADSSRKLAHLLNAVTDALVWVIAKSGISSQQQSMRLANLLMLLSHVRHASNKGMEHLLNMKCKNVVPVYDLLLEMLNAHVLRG
# human ERα = biological target: T1, human ERα; assay: HGELN-ERα luciferase transactivation assay; details: for relative activation of the two ER subtypes: HGELN-ERα versus HGELN-ERβ, full-length receptors; for agonistic potential in words, FL-ERα: HGELN-ERα, full-length receptor
# human ERβ = human ERβ (Homo sapiens, UniProt Q92731); assay: HGELN-ERβ luciferase transactivation assay; details: full-length receptor
# Sequence of human ERβ (Q92731 whole entry): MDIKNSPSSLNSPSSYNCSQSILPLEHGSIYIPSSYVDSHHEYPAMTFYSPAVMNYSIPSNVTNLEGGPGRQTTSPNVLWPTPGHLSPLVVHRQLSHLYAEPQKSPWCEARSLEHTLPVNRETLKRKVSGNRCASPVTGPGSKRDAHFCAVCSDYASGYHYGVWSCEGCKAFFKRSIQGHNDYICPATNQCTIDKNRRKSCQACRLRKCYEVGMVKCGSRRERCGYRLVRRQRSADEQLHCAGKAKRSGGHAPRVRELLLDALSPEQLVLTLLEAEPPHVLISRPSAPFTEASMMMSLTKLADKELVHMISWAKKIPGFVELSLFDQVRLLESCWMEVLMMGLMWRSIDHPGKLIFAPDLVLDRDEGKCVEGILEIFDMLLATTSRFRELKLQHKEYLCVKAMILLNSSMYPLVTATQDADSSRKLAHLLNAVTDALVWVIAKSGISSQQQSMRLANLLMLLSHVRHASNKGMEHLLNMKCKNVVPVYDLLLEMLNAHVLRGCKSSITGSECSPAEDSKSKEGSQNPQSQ
# ΔAB-ERα = assay: HGELN-ΔAB-ERα luciferase transactivation assay
# ΔAB-ERβ = assay: HGELN-ΔAB-ERβ luciferase transactivation assay
# wild-type ERα LBD = biological target: T2, wild-type ERα LBD; assay: fluorescence anisotropy, SRC-1 NR2 peptide recruitment by ERα LBD; details: class from Kd of SRC-1 peptide for ERα LBD
# ER = tested on: ER; design: method as in Wilson et al. 2004; details: ref Wilson et al. 2004; cited from earlier work
# [1] = biological target: T3, wt-ERα LBD (wild-type estrogen receptor …); assay: fluorescence polarisation; fluorescence anisotropy as a1, with 4-OP at 2 molar equivalents of the highest protein concentration; details: both partners purified
# [2] = biological target: T4, wt-ERβ LBD (wild-type estrogen receptor β ligand-binding domain, amino acids 261–502) (human, UniProt Q92731 261-502); assay: fluorescence polarisation; fluorescence anisotropy as a1, with BP-2 at 2 molar equivalents of the highest protein concentration; details: both partners purified
# T4 construct: also called wild-type ERβ LBD; apo-ERβ
# T4 sequence (Q92731 261-502): as the sequence (Q92731 261-502) above
# [3] = biological target: T3, wt-ERα LBD (wild-type estrogen receptor …); assay: fluorescence polarisation; fluorescence anisotropy as a1, with α-ZA at 2 molar equivalents of the highest protein concentration; details: both partners purified
# [4] = biological target: T4, wt-ERβ LBD (wild-type estrogen receptor …); assay: as above; details: both partners purified
molecule,measurement,setting,value
"CC(C)(C)CC(C)(C)c1ccc(O)cc1 [4-OP, 4-tert-octylphenol]","ligand class by SRC-1 peptide recruitment, ERβ",wild-type ERβ LBD,partial agonists (partial agonists (1 μM ≤ Kd ≤ values for apo-ERα or -ERβ))
"O=C(c1ccc(O)cc1O)c1ccc(O)cc1O [BP-2, benzophenone-2]",relative activation of the two ER subtypes,human ERα,activated the two ER subtypes equally
same,"agonistic potential in words, FL-ERα",human ERα,full agonist
same,"agonistic potential in words, FL-ERβ",human ERβ,full agonist
same,"agonistic potential in words, ΔAB-ERα",ΔAB-ERα; HGELN-ΔAB-ERα,full agonist
same,AF-1 dependence of activity,ΔAB-ERα; full-length versus ΔAB (AF-1 deleted) ERs,fully AF-1–independent activity
same,"agonistic potential in words, ΔAB-ERβ",ΔAB-ERβ,full agonist
same,"ligand class by SRC-1 peptide recruitment, ERα",wild-type ERα LBD,strong agonists (strong agonists (Kd ≤ 1 μM))
same,"ligand class by SRC-1 peptide recruitment, ERβ",wild-type ERβ LBD,strong agonists (strong agonists (Kd ≤ 1 μM))
"CC(C)(c1ccc(O)cc1)c1ccc(O)cc1 [BPA, bisphenol A]","ligand class by SRC-1 peptide recruitment, ERα",wild-type ERα LBD,partial agonists (partial agonists (1 μM ≤ Kd ≤ values for apo-ERα or -ERβ))
same,"ligand class by SRC-1 peptide recruitment, ERβ",wild-type ERβ LBD,partial agonists (partial agonists (1 μM ≤ Kd ≤ values for apo-ERα or -ERβ))
"Oc1ccc(C(=C(Cl)Cl)c2ccc(O)cc2)cc1 [BPC, bisphenol C]",relative activation of the two ER subtypes,human ERα,activated ERα more efficiently than ERβ
"CCCCOC(=O)c1ccc(O)cc1 [Butylparaben, butylparaben]","ligand class by SRC-1 peptide recruitment, ERβ",wild-type ERβ LBD,partial agonists (partial agonists (1 μM ≤ Kd ≤ values for apo-ERα or -ERβ))
"ClC(Cl)=C(c1ccc(Cl)cc1)c1ccc(Cl)cc1 [DDE, dichlorodiphenyldichloroethylene]","ligand class by SRC-1 peptide recruitment, ERα",wild-type ERα LBD,partial agonists (partial agonists (1 μM ≤ Kd ≤ values for apo-ERα or -ERβ))
"Oc1ccc(C(c2ccc(O)cc2)C(Cl)(Cl)Cl)cc1 [HPTE, 2,2-bis(p-hydroxyphenyl)-1,1,1-trichloroethane]",ER activity reported in other studies,ER,agonistic properties
"CC(C)(c1cc(Cl)c(O)c(Cl)c1)c1cc(Cl)c(O)c(Cl)c1 [TCBPA, tetrachlorobisphenol A]","agonistic potential in words, FL-ERβ",human ERβ,ERβ antagonists
same,"agonistic potential in words, ΔAB-ERβ",ΔAB-ERβ,ERβ antagonists
"C[C@H]1CCC[C@H](O)CCCCCc2cc(O)cc(O)c2C(=O)O1 [α-ZA, α-zearalanol]","agonistic potential in words, FL-ERα",human ERα,efficiently activated
same,"ligand class by SRC-1 peptide recruitment, ERα",wild-type ERα LBD,strong agonists (strong agonists (Kd ≤ 1 μM))
B1,Kd,[1],≥ 1000 nM
same,Kd,[2],≤ 1000 nM
same,Kd,[3],≤ 1000 nM
same,Kd,[4],≥ 1000 nM
